According to patent US9468693B2, “Labeled molecular imaging agents and methods of use” (GENERAL ELECTRIC COMPANY, priority 2014, dated 2016):

Molecular target: T1, oxidative stress transporter (Homo sapiens, UniProt Q9UPY5)
T1 sequence (Q9UPY5 1-501): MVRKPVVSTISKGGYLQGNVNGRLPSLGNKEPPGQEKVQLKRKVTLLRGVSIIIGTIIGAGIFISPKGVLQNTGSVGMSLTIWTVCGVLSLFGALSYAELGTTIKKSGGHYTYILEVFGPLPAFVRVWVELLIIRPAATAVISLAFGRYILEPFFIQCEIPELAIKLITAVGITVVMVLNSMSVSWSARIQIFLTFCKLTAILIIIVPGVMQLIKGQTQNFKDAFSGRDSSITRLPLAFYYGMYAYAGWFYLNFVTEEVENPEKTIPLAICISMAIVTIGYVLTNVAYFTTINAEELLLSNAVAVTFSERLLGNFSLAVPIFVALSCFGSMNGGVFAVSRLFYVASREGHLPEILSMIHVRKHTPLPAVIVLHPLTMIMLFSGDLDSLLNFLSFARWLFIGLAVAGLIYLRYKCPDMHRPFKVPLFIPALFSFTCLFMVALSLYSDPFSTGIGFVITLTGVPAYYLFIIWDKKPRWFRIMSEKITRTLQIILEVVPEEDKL
T1 sequence (P08195 1-529 partner): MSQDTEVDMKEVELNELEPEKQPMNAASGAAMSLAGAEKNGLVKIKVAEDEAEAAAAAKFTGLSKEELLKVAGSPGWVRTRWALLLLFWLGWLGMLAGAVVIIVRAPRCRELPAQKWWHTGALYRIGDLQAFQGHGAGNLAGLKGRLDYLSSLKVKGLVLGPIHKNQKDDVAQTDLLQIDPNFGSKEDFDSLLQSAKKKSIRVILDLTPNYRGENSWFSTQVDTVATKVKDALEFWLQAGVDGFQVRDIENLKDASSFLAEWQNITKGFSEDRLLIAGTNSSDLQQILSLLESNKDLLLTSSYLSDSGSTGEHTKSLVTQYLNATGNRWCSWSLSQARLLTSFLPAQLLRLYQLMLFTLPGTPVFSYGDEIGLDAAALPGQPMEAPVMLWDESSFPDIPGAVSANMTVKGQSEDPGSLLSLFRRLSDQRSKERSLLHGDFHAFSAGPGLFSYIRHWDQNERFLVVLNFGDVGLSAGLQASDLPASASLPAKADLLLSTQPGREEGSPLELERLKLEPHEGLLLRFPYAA
Assay: not given
Settings: as reported in U.S. patent application Ser. No. 13/234,210; cited from earlier work

SMILES | uptake via the oxidative stress transporter
N[C@@H](CCCCCC(=O)O)C(=O)O [aminosuberic acid] | good uptake

Molecular target: T2, cystine/glutamate transporter (Homo sapiens, UniProt Q9UPY5)
T2 construct: endogenous in cells; host or cells: SKOV3 cells treated with 100 uM DEM (the paragraph also says 'DEM treated EL4 cells')
T2 sequence (Q9UPY5 1-501): T1 sequence (Q9UPY5 1-501)
T2 sequence (P08195 2-529 partner): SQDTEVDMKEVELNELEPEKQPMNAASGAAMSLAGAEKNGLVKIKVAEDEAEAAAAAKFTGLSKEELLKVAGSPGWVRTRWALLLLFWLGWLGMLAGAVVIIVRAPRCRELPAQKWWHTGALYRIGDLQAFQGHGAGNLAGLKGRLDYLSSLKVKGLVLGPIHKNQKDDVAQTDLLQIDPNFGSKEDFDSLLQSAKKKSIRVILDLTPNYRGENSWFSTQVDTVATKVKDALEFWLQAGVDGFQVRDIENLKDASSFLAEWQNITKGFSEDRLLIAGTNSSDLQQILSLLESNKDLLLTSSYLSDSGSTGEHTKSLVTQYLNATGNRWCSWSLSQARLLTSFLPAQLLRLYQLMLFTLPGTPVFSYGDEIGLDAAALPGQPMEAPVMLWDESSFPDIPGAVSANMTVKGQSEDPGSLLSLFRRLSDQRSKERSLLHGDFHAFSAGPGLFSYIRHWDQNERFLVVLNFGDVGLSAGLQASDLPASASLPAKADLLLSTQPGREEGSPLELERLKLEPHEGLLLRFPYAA
Assay: inhibition of 3H-L-Glu uptake in DEM treated cells
Format: cell-based
Settings: 0.5 h; 1 mM agent; 30 minutes uptake at room temperature; cells pretreated with 100 μM DEM overnight; triplicate; lower = inhibition of the transporter; read-out: % of contro1 3H-Glu uptake
Experimental: Following are non-limiting examples used to illustrate various embodiments of the imaging agents and methods of use. As such Table 1 provides examples of the non-labelled analog of the final product. Also provided are measurements of inhibition response of ^3H-L-GLU (control) uptake in DEM treated EL4 cells. As such 96 well plate were seeded with 100,000 SKOV3 cells/well in complete growth media (McCoy's+10% Fetal Bovine Serum(FBS)) and incubated overnight at 37° C. The media was changed to 100 μM DEM and again incubated overnight at 37° C. Wash 1× with Hank's Balanced Salt Solution (HBSS) Room Temperature and assayed 50 μl of each agent (Table 1) in triplicate by incubating for 30 minutes (uptake) at room temperature. It was then washed twice with HBSS and 200 μl MicroScint20 added for counting. The protocol used 200 uCi 3H-Glu per well. The mix and agent and ^3H-Glu provided a final concentration of 200 uCi and 1 mM agent. […] As such lower response is indicative of inhibition of the transporter. As such numbers below approximately 30% is equivalent to 70% inhibition and are considered good candidates for pharmaceutical agents.

SMILES | remaining activity at 1000 µM [%]
N[C@@H](CCC(=O)N1CCC[C@H]1C(=O)O)C(=O)O [1a] | 46.3
N[C@@H](CCC(=O)N1CCC[C@@H]1C(=O)O)C(=O)O [1b] | 84
N[C@@H](CCC(=O)N1C[C@H](O)C[C@H]1C(=O)O)C(=O)O [1c] | 73.6
N[C@@H](CCC(=O)N1C[C@H](F)C[C@H]1C(=O)O)C(=O)O [1d] | 51.8
N[C@@H](CCC(=O)N1C[C@@H](O)C[C@@H]1C(=O)O)C(=O)O [1e] | 74
N[C@@H](CCC(=O)N1C[C@@H](O)C[C@H]1C(=O)O)C(=O)O [1f] | 30.8
N[C@@H](CCC(=O)N1C[C@H](O)C[C@@H]1C(=O)O)C(=O)O [1g] | 94.7
N[C@@H](CCC(=O)N1C[C@H](c2ccccc2)C[C@H]1C(=O)O)C(=O)O [1h] | 52.3
N[C@@H](CCC(=O)N1C[C@@H](c2ccccc2)C[C@H]1C(=O)O)C(=O)O [1i] | 46.2
N[C@@H](CCC(=O)N1C[C@@H](Oc2ccccc2)C[C@H]1C(=O)O)C(=O)O [1j] | 33
N[C@@H](CCC(=O)N1C[C@H](Cc2ccccc2)C[C@H]1C(=O)O)C(=O)O [1k] | 30.9
N[C@@H](CCC(=O)N1C[C@H](Oc2ccccc2)C[C@H]1C(=O)O)C(=O)O [1l] | 36.6
N[C@@H](CCC(=O)N1C[C@H](OCc2ccccc2)C[C@H]1C(=O)O)C(=O)O [1m] | 14.9
N[C@@H](CCC(=O)N1C[C@@H](OCc2ccccc2)C[C@H]1C(=O)O)C(=O)O [1n] | 26.2
N[C@@H](CCC(=O)N1C[C@@H](OCc2ccccc2)CC1C(=O)O)C(=O)O (some centres unmarked) [1o] | 43.2
N[C@@H](CCC(=O)N1C[C@H](OCc2ccccc2)CC1C(=O)O)C(=O)O (some centres unmarked) [1p] | 50
CCOc1cccc(CO[C@@H]2C[C@@H](C(=O)O)N(C(=O)CC[C@H](N)C(=O)O)C2)c1 [1q] | 14.5
N[C@@H](CCC(=O)N1C[C@H](OCc2ccc(COCCF)cc2)C[C@H]1C(=O)O)C(=O)O [1r] | 10.1

Same assay, conditions: comparison of the 2S,4R-hydroxyproline scaffold with the other stereoisomers

SMILES | uptake compared to structures 1n, 1o, or 1p (hydroxyproline stereoisomers)
N[C@@H](CCC(=O)N1C[C@H](OCc2ccccc2)C[C@H]1C(=O)O)C(=O)O [1m] | improved uptake
